From PMC11650361 (Archiv Der Pharmazie, 2024)
Like-named read-outs stand apart in the source and are kept apart here.

Columns and labels:
human erythrocyte AChE = molecular target: T1, human erythrocyte AChE (Homo sapiens, UniProt P22303); test: biochemical; format: biochemical; settings: for IC50: human erythrocyte AChE, mean ± SEM, n = 3
T1 construct: purchased Sigma-Aldrich; Milamed, Perm, Russia (supplement); host or cells: human erythrocytes

[1] = test system: HepG2 cells (human hepatocellular carcinoma); test: Cytotoxicity, MTT assay, HepG2; format: cell-based; settings: HepG2, MTT, 24 h, mean ± SEM, n = 3, read-out: Hep G2 IC50
[2] = ABTS radical cation scavenging activity assay; settings: for IC50: concentration reducing ABTS radical by 50%, 1 h; for ABTS^•+‐scavenging activity, TEAC: relative to Trolox, 1 h incubation, n.a. = inactive
Description: Data are given for 1 h of incubation of compounds with ABTS^•+. The AOA of the compounds was evaluated as Trolox equivalent antioxidant capacity (TEAC values) as the ratio of the slopes of the concentration–response curves, test compound/Trolox. All tests were performed at least in triplicate in three independent experiments. The IC50 values for the test compounds were also determined.

[3] = test system: SH‐SY5Y (human neuroblastoma) cells; test: Cytotoxicity, MTT assay, SH-SY5Y; format: cell-based; settings: MTT, 24 h, mean ± SEM, n = 3, read-out: SH‐SY5Y IC50
equine serum BChE = molecular target: T2, equine serum BChE (Equus caballus, UniProt P81908); test: biochemical; settings: for IC50: equine serum BChE, mean ± SEM, n = 3
T2 construct: purchased Sigma-Aldrich; Milamed, Perm, Russia (supplement); host or cells: horse serum
T2 sequence (P81908 whole entry): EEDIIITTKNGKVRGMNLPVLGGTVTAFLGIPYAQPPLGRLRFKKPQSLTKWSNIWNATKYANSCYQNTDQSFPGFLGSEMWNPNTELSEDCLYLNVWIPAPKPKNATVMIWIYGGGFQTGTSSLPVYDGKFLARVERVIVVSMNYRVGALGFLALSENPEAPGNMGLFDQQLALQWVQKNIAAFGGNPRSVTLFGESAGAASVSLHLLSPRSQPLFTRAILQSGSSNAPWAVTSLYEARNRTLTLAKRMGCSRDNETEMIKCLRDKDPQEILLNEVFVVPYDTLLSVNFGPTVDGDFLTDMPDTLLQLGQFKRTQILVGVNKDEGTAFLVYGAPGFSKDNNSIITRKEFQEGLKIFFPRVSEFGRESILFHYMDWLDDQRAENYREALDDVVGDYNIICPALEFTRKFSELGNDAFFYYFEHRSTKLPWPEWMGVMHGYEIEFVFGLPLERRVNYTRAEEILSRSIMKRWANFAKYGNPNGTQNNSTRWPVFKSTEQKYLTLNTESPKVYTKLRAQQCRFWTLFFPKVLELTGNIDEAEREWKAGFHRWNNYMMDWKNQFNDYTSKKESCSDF

[4] = molecular target: T3, PAS of Electrophorus electricus AChE (EeAChE) (Electrophorus electricus, UniProt O42275); format: binding; settings: 20 µM compound concentration
T3 construct: purchased Sigma-Aldrich type VI-S; host or cells: electric eel tissue
T3 sequence (O42275 24-633): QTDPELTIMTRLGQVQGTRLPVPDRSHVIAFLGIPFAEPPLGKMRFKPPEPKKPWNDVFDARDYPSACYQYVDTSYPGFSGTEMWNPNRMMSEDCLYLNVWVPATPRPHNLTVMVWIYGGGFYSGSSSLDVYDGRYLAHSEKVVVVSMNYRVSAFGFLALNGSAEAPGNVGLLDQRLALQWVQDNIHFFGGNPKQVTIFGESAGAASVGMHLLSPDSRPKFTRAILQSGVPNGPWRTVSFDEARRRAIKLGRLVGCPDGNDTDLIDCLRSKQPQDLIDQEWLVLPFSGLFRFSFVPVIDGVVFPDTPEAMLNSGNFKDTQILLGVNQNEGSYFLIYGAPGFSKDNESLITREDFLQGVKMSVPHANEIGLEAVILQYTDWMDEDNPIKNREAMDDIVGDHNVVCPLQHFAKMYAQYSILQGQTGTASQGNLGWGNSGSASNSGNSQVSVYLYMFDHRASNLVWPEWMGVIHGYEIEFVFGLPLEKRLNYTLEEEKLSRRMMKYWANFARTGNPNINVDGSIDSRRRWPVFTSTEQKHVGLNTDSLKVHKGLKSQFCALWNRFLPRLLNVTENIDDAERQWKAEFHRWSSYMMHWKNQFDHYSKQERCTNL
Description: The ability of the test compounds to competitively displace propidium was evaluated by the fluorescence method,^[ [65] ^] as described in detail in Makhaeva et al.^[ [66] ^] […] After 15 min of incubation of the test compounds at a concentration of 20 μM with a 7 μM solution of EeAChE in 1 mM Tris‐HCl buffer, pH 8.0, 25°C, propidium iodide (final concentration 8 μM) was added. Then, the solutions were incubated for 15 min and the fluorescence spectrum was recorded (530 nm (excitation) and 600 nm (emission)). […] Measurements were performed in triplicate on a FLUOStar Optima microplate reader (BMG LabTech).
The 7 μM EeAChE was incubated with the test compound at a concentration of 20 μM in 1 mM Tris-HCl buffer pH 8.0, 25 °C, for 15 min. After that, propidium iodide was added at final concentration of 8 μM. The samples were incubated for 15 min and the fluorescence spectrum (530 nm (excitation) and 600 nm (emission)) was taken. […] The measurements were carried out in triplicate on a FLUOStar Optima microplate reader. The degree of propidium displacement (% displacement) from the PAS of EeAChE was calculated by formula (1):
% Displacement = 100 – (IFAChE+ Propidium + inhibitor / IFAChE + Propidium) × 100 (1),
where IFAChE + Propidium is the fluorescence intensity of the propidium associated with AChE in the absence of the test compound (taken as 100%), and IFAChE + Propidium + inhibitor is the fluorescence intensity of the propidium associated with AChE in the presence of the test compound.

β‐amyloid (1–42) (Aβ42) = β‐amyloid (1–42) (Aβ42) (Homo sapiens, UniProt P05067); test: Inhibition of Aβ42 self-aggregation (thioflavin T fluorescence); format: biochemical; settings: for inhibition at 100 µM: read-out: Inhibition of Aβ42 self‐aggregation, %
Chain of β‐amyloid (1–42) (Aβ42) (P05067 672-713 limits assumed): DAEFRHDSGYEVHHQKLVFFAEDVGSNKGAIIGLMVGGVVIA
Description: Inhibition of Aβ42 self‐aggregation by test compounds was studied using the ThT fluorescence method^[ [67], [68] ^] with minor modifications as described in detail in Makhaeva et al.^[ [16] ^] Lyophilized hexamfluoroisopropanol‐pretreated Aβ42 (GenicBio Limited, 1 mg) was dissolved in DMSO to obtain a stable 500 μM solution. […] Myricetin and propidium iodide in the same concentration were used as references. […] Each assay was run in triplicate.
^c The inhibitory effect of the test compounds toward Aβ42 self-aggregation was determined using the thioflavin T (ThT) fluorescence method ^[5-7] with minor modifications as described in detail in ^[8]. Lyophilized HFIP-pretreated Aβ42 from BACHEM (Bubendorf, Switzerland) was used. […] Myricetin and propidium iodide were used as reference compounds (positive controls). Analyses were performed with a FLUOStar Optima microplate reader (LabTech, Ortenberg, Germany). The inhibition (%) of Aβ42 self-aggregation by the test compounds was calculated by the following equation: […]
where IFi and IFo are the fluorescence intensities obtained for Aβ42 in the presence and in the absence of inhibitor, respectively, after subtracting the fluorescence of respective blanks.

[5] = test system: HEK293T (human embryonic kidney) cells; test: Cytotoxicity, MTT assay, HEK293T; format: cell-based; settings: HEK-293T, MTT, 24 h, mean ± SEM, n = 3, read-out: HEK293T IC50
porcine liver CES = test: In vitro CES inhibition (4-NPA substrate); format: biochemical; settings: % inhibition at 20 μM; n.a. = not active
Description: The esterase profile of the synthesized conjugates was determined. This included an assessment of their inhibition of cholinergic targets AChE and BChE along with a structurally related enzyme CES (EC 3.1.1.1), which hydrolyzes numerous ester‐containing drugs and is considered as an off‐target for anti‐AD agents.^[ [9], [40] ^] Human erythrocyte AChE, equine serum BChE, and porcine liver CES were used.^[ [40], [41], [42] ^]
Initially, we used a single concentration of 20 µM for all compounds.
^a All experiments were carried out in accordance with the standard protocols approved by IPAС RAS. Human erythrocyte AChE, equine serum BChE were purchased from Milamed (Perm, Russia). Porcine liver CES, substrates, and reference compounds were from Sigma-Aldrich (St. Louis, MO, USA). The activity of enzymes was measured spectrophotometrically, as described in detail in ^[1] using ATCh iodide, BTCh iodide, and 4-NPA as substrates for AChE, BChE, and CES, respectively. Experimental conditions: K,Na-phosphate buffer (100 mM), 25 °С, pH 7.5 for AChE and BChE and pH 8.0 for CES assay. Measurements were carried out on a FLUOStar Optima microplate reader (BMG Labtech, Ortenberg, Germany). Test compounds were dissolved in DMSO; final concentration of solvent in the incubation mixture was 2% (v/v).

eqBChE = molecular target: T4, eqBChE (Equus caballus, UniProt P81908); test: Kinetic study of BChE inhibition, steady-state inhibition constants; format: biochemical; settings: for αK i (noncompetitive inhibition constant), eqBChE / Ki: means ± SEM; for Ki: read-out: K i (competitive inhibition constant), eqBChE
T4 construct: purchased Sigma-Aldrich; Milamed, Perm, Russia (supplement); host or cells: horse serum
T4 sequence (P81908 whole entry): as the sequence (P81908 whole entry) above
Description: (§1) We assessed the mechanisms of AChE and BChE inhibition by performing a thorough analysis of enzyme kinetics. After a 5 min incubation at 25°C (for temperature equilibration) with three increasing concentrations of inhibitor and six decreasing substrate concentrations, the residual enzyme activity was measured as described above for enzymatic assays.

AChE = molecular target: T5, AChE (Homo sapiens, UniProt P22303); test: Kinetic study of AChE inhibition, steady-state inhibition constants; format: biochemical; settings: for αK i (noncompetitive inhibition constant), AChE / Ki: means ± SEM; for Ki: read-out: K i (competitive inhibition constant), AChE
T5 construct: purchased Sigma-Aldrich; Milamed, Perm, Russia (supplement); host or cells: human erythrocytes
T5 sequence (P22303 32-617 isoform P22303-2 limits assumed): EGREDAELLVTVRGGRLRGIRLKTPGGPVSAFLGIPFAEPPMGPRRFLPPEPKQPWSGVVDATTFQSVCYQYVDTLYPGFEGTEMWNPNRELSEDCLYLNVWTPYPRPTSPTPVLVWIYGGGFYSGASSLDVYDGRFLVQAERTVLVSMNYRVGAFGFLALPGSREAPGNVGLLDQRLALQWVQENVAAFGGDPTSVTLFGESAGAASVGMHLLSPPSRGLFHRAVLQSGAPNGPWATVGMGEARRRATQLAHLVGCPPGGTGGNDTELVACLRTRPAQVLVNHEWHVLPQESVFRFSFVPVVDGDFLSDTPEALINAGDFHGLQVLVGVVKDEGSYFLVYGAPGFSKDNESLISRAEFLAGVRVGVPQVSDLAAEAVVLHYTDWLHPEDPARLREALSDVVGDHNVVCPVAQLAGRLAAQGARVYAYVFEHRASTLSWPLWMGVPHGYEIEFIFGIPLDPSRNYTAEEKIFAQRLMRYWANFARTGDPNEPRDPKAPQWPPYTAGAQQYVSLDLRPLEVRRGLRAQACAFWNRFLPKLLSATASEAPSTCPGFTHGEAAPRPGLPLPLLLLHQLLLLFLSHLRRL
Description: as §1

T1 sequence (P22303 32-617 isoform P22303-2 limits assumed): as above

O=C(NCCCCNc1c2c(nc3c1CCC3)CCCC2)c1ccccc1O [7a, N‐{4‐[(2,3,5,6,7,8‐Hexahydro‐1H‐cyclopenta[b]quinolin‐9‐yl)amino]butyl}−2‐hydroxybenzamide]
IC50 (human erythrocyte AChE): 1.52 ± 0.14 µM | IC50 [1]: 74.7 ± 3.4 µM | IC50 [2]: 17.6 ± 0.8 µM | ABTS^•+‐scavenging activity, TEAC [2]: 0.97 ± 0.04 | IC50 [3]: 49.6 ± 3.7 µM | Selectivity index IC50AChE/IC50BChE (equine serum BChE): 6.0 | IC50 (equine serum BChE): 0.254 ± 0.023 µM | Propidium displacement, % [4]: 10.8 ± 0.8% | inhibition at 100 µM (β‐amyloid (1–42) (Aβ42); Aβ42 50 µM, compound 100 µM): 41.3 ± 3.3% | IC50 [5]: 38.4 ± 3.6 µM | CES inhibition, % (porcine liver CES): 5.0 ± 0.1%

O=C(NCCCCCCNc1c2c(nc3c1CCC3)CCCC2)c1ccccc1O [7b, N‐{6‐[(2,3,5,6,7,8‐Hexahydro‐1H‐cyclopenta[b]quinolin‐9‐yl)amino]hexyl}−2‐hydroxybenzamide]
IC50 (human erythrocyte AChE): 4.24 ± 0.08 µM | αK i (noncompetitive inhibition constant), eqBChE (eqBChE): 19.2 ± 0.9 nM | Ki (eqBChE): 0.0142 ± 0.0011 µM | IC50 [2]: 17.6 ± 0.7 µM | ABTS^•+‐scavenging activity, TEAC [2]: 0.98 ± 0.04 | αK i (noncompetitive inhibition constant), AChE (AChE): 6.25 ± 0.44 µM | Ki (AChE): 2.6 ± 0.19 µM | Selectivity index IC50AChE/IC50BChE (equine serum BChE): 193 | IC50 (equine serum BChE): 0.022 ± 0.001 µM | Propidium displacement, % [4]: 11.6 ± 0.9% | inhibition at 100 µM (β‐amyloid (1–42) (Aβ42); Aβ42 50 µM, compound 100 µM): 53.4 ± 4.2% | CES inhibition, % (porcine liver CES): 12.3 ± 1.2%

Oc1ccccc1C=NCCCCCCNc1c2c(nc3c1CCC3)CCCC2 [9b, 2‐[({6‐[(2,3,5,6,7,8‐Hexahydro‐1H‐cyclopenta[b]quinolin‐9‐yl)amino]hexyl}imino)methyl]phenol]
αK i (noncompetitive inhibition constant), eqBChE (eqBChE): 89.0 ± 7.1 nM | Ki (eqBChE): 0.0501 ± 0.0048 µM | αK i (noncompetitive inhibition constant), AChE (AChE): 4.98 ± 0.33 µM | Ki (AChE): 1.76 ± 0.12 µM

Oc1ccccc1CNCCCCCCNc1c2c(nc3c1CCC3)CCCC2 [10b, 2‐[({6‐[(2,3,5,6,7,8‐Hexahydro‐1H‐cyclopenta[b]quinolin‐9‐yl)amino]hexyl}amino)methyl]phenol]
IC50 (human erythrocyte AChE): 1.19 ± 0.05 µM | Type of BChE inhibition (eqBChE; Lineweaver–Burk analysis): mixed type of inhibition | αK i (noncompetitive inhibition constant), eqBChE (eqBChE): 45.4 ± 4.1 nM | Ki (eqBChE): 0.021 ± 0.0006 µM | Type of AChE inhibition (AChE; Lineweaver–Burk analysis): mixed type of inhibition | αK i (noncompetitive inhibition constant), AChE (AChE): 1.50 ± 0.03 µM | Ki (AChE): 0.656 ± 0.011 µM | IC50 (equine serum BChE): 0.0294 ± 0.0006 µM | inhibition at 100 µM (β‐amyloid (1–42) (Aβ42); Aβ42 50 µM, compound 100 µM): 79.2 ± 5.5%

O=[N+]([O-])c1ccc(OP(=O)(O)Oc2ccc([N+](=O)[O-])cc2)cc1 [BNPP, Bis‐4‐nitrophenyl phosphate, reference compound]
AChE inhibition, % (human erythrocyte AChE; 20 µM): n.а. | BChE inhibition, % (equine serum BChE; 20 µM): n.а. | Propidium displacement, % [4]: n.а. | Inhibition of Aβ42 self‐aggregation, % (β‐amyloid (1–42) (Aβ42); Aβ42 50 µM, compound 100 µM): n.а.

COc1cc2c(cc1OC)C(=O)C(CC1CCN(Cc3ccccc3)CC1)C2 (centres unmarked) [Donepezil, reference compound]
inhibition at 100 µM (β‐amyloid (1–42) (Aβ42)): 90.7 ± 7.1% | CES inhibition, % (porcine liver CES): n.а.

O=c1c(O)c(-c2cc(O)c(O)c(O)c2)oc2cc(O)cc(O)c12 [Myricetin, reference compound]
inhibition at 100 µM (β‐amyloid (1–42) (Aβ42); Aβ42 50 µM, compound 100 µM): 79.4 ± 6.3%

CC[N+](C)(CC)CCC[n+]1c(-c2ccccc2)c2cc(N)ccc2c2ccc(N)cc21.[I-].[I-] [Propidium iodide, reference compound]
Inhibition of Aβ42 self‐aggregation, % (β‐amyloid (1–42) (Aβ42); Aβ42 50 µM, compound 100 µM): 90.7 ± 7.1%

O=C(O)c1ccccc1O [Salicylic acid, reference compound]
ABTS^•+‐scavenging activity, TEAC [2]: did not show activity | CES inhibition, % (porcine liver CES): 8.9 ± 0.6%

Cc1c(C)c2c(c(C)c1O)CCC(C)(C(=O)O)O2 (centres unmarked) [Trolox, 6-hydroxy-2,5,7,8-tetramethychroman-2-carboxylic acid, reference compound]
IC50 [2]: 19.7 ± 1.4 µM | ABTS^•+‐scavenging activity, TEAC [2]: 1.0

CCCCCCNc1c2c(nc3c1CCC3)CCCC2 [compound 11, N‐hexyl‐2,3,5,6,7,8‐hexahydro‐1H‐cyclopenta[b]quinolin‐9‐amine]
IC50 (human erythrocyte AChE): 4.3 ± 0.32 µM | Selectivity index IC50AChE/IC50BChE (equine serum BChE): 16.4 | IC50 (equine serum BChE): 0.262 ± 0.008 µM | CES inhibition, % (porcine liver CES): 5.6 ± 0.6%

CCCCCCN=Cc1ccccc1O [compound 12, 2‐[(hexylimino)methyl]phenol]
AChE inhibition, % (human erythrocyte AChE; % inhibition at 20 μM, n.a. = not active): n.а. | IC50 [2]: 93.3 ± 4.1 µM | ABTS^•+‐scavenging activity, TEAC [2]: 0.15 ± 0.008 | inhibition at 20 µM (equine serum BChE): 10.6 ± 0.1% | CES inhibition, % (porcine liver CES): 1.9 ± 0.1%

CCCCCCNCc1ccccc1O [compound 13, 2‐[(hexylamino)methyl]phenol]
inhibition at 20 µM (human erythrocyte AChE): 14 ± 0.6% | IC50 [2]: 10.7 ± 0.4 µM | ABTS^•+‐scavenging activity, TEAC [2]: 1.52 ± 0.07 | inhibition at 20 µM (equine serum BChE): 26.9 ± 0.5% | CES inhibition, % (porcine liver CES): 14.8 ± 0.5%
